This test has as its system MV-4-11 cells. Description: Gene expression microarray analysis (Affymetrix PrimeView) and GSEA. It is filed as cell-based, human. Also on record: RFU PODN (11730768_x_at) / Fold change /veh PODN (11730768_x_at) / RFU LINC00158 (11744669_a_at) / Fold change /veh LINC00158 (11744669_a_at) / RFU DUSP10 (11751237_a_at) / Fold change /veh DUSP10 (11751237_a_at) / RFU ID3 (11757404_x_at) / Fold change /veh ID3 (11757404_x_at) / RFU PLEKHG5 (11737974_s_at) / Fold change /veh PLEKHG5 (11737974_s_at) / RFU LRRC4B (11730491_at) / Fold change /veh LRRC4B (11730491_at) / RFU GIMAP4 (11747438_a_at) / Fold change /veh GIMAP4 (11747438_a_at) / RFU KRT8 (11758183_x_at) / Fold change /veh KRT8 (11758183_x_at) / RFU CNN1 (11734310_a_at) / Fold change /veh CNN1 (11734310_a_at) / RFU VPS37D (11726825_at) / Fold change /veh VPS37D (11726825_at) / RFU C10orf10 (11716522_x_at) / Fold change /veh C10orf10 (11716522_x_at) / RFU KIR2DL2 /// KIR2DL4 /// KIR2DL5A /// KIR2DL5B /// KIR2DS1 /// KIR2DS2 /// KIR2DS3 /// KIR2DS4 /// KIR3DL3 /// KIR3DL3 /// KIR3DS1 (11738374_at) / Fold change /veh KIR2DL2 /// KIR2DL4 /// KIR2DL5A /// KIR2DL5B /// KIR2DS1 /// KIR2DS2 /// KIR2DS3 /// KIR2DS4 /// KIR3DL3 /// KIR3DL3 /// KIR3DS1 (11738374_at) / RFU C1QL1 (11718748_at) / Fold change /veh C1QL1 (11718748_at) / RFU TMPRSS4 (11747572_a_at) / Fold change /veh TMPRSS4 (11747572_a_at) / RFU HAMP (11756126_x_at) / Fold change /veh HAMP (11756126_x_at) / RFU RNFT2 (11725882_a_at) / Fold change /veh RNFT2 (11725882_a_at) / RFU NR4A2 (11747474_a_at) / Fold change /veh NR4A2 (11747474_a_at) / RFU ABCC12 (11746883_a_at) / Fold change /veh ABCC12 (11746883_a_at) / RFU TMEM136 (11760407_x_at) / Fold change /veh TMEM136 (11760407_x_at) / RFU CLDN22 /// WWC2 (11732394_at) / Fold change /veh CLDN22 /// WWC2 (11732394_at) / RFU HLA-DPB1 (11760878_x_at) / Fold change /veh HLA-DPB1 (11760878_x_at) / RFU SPINT1 (11716480_a_at) / Fold change /veh SPINT1 (11716480_a_at) / RFU GAP43 (11754022_s_at) / Fold change /veh GAP43 (11754022_s_at) / RFU A4GNT (11735810_at) / Fold change /veh A4GNT (11735810_at) / RFU PRB3 (11715151_x_at) / Fold change /veh PRB3 (11715151_x_at) / RFU TUBB4B (11761932_at) / Fold change /veh TUBB4B (11761932_at) / RFU CAPN14 (11732068_a_at) / Fold change /veh CAPN14 (11732068_a_at) / RFU TMCC2 (11721928_a_at) / Fold change /veh TMCC2 (11721928_a_at) / RFU IRGQ (11745062_a_at) / Fold change /veh IRGQ (11745062_a_at) / RFU FAM174B (11720279_a_at) / Fold change /veh FAM174B (11720279_a_at) / RFU TMPRSS4 (11748680_a_at) / Fold change /veh TMPRSS4 (11748680_a_at) / RFU FAM212B (11763350_a_at) / Fold change /veh FAM212B (11763350_a_at) / RFU PLEKHG5 (11743358_a_at) / Fold change /veh PLEKHG5 (11743358_a_at) / RFU ZSCAN30 (11745921_a_at) / Fold change /veh ZSCAN30 (11745921_a_at) / RFU CMKLR1 (11741424_a_at) / Fold change /veh CMKLR1 (11741424_a_at) / RFU LOC101060620 /// MAPK8IP1 (11723275_at) / Fold change /veh LOC101060620 /// MAPK8IP1 (11723275_at) / RFU SPTSSB (11747773_x_at) / Fold change /veh SPTSSB (11747773_x_at) / RFU PRSS12 (11739890_at) / Fold change /veh PRSS12 (11739890_at) / RFU BIN1 (11741810_x_at) / Fold change /veh BIN1 (11741810_x_at) / RFU WNT11 (11732464_a_at) / Fold change /veh WNT11 (11732464_a_at) / RFU C10orf10 (11716521_a_at) / Fold change /veh C10orf10 (11716521_a_at) / RFU C5orf56 (11738089_at) / Fold change /veh C5orf56 (11738089_at) / RFU CYB561 (11721691_x_at) / Fold change /veh CYB561 (11721691_x_at) / RFU ANKRD19P (11752326_a_at) / Fold change /veh ANKRD19P (11752326_a_at) / RFU OR2T12 /// OR2T33 /// OR2T8 (11738714_s_at) / Fold change /veh OR2T12 /// OR2T33 /// OR2T8 (11738714_s_at) / RFU VCAN (11748164_a_at) / Fold change /veh VCAN (11748164_a_at) / RFU JSRP1 (11732532_at) / Fold change /veh JSRP1 (11732532_at) / RFU KRTAP10-11 (11738290_x_at) / Fold change /veh KRTAP10-11 (11738290_x_at) / RFU MYO3A (11730013_a_at) / Fold change /veh MYO3A (11730013_a_at) / RFU EBF3 (11725865_a_at) / Fold change /veh EBF3 (11725865_a_at) / RFU CAMK2N1 (11719241_x_at) / Fold change /veh CAMK2N1 (11719241_x_at) / RFU C5orf56 (11738088_a_at) / Fold change /veh C5orf56 (11738088_a_at) / RFU OLFML3 (11715873_a_at) / Fold change /veh OLFML3 (11715873_a_at) / RFU LOC100653217 /// NTM (11731650_a_at) / Fold change /veh LOC100653217 /// NTM (11731650_a_at) / RFU MAPK11 (11762145_a_at) / Fold change /veh MAPK11 (11762145_a_at) / RFU FIZ1 (11724087_x_at) / Fold change /veh FIZ1 (11724087_x_at) / RFU OASL (11726364_x_at) / Fold change /veh OASL (11726364_x_at) / RFU SOX15 (11748057_x_at) / Fold change /veh SOX15 (11748057_x_at) / RFU CD79A (11719716_a_at) / Fold change /veh CD79A (11719716_a_at) / RFU HIST1H1D (11736915_at) / Fold change /veh HIST1H1D (11736915_at) / RFU CASKIN2 (11723855_a_at) / Fold change /veh CASKIN2 (11723855_a_at) / RFU LOC730098 (11760151_x_at) / Fold change /veh LOC730098 (11760151_x_at) / RFU OR4N2 (11742367_at) / Fold change /veh OR4N2 (11742367_at) / RFU PRRT2 (11749266_a_at) / Fold change /veh PRRT2 (11749266_a_at) / RFU SNX32 (11753110_a_at) / Fold change /veh SNX32 (11753110_a_at) / RFU CDHR5 (11726645_a_at) / Fold change /veh CDHR5 (11726645_a_at) / RFU RCAN1 (11760418_a_at) / Fold change /veh RCAN1 (11760418_a_at) / RFU FAM167A (11723789_a_at) / Fold change /veh FAM167A (11723789_a_at) / RFU FAM26E (11764081_at) / Fold change /veh FAM26E (11764081_at) / RFU ISYNA1 (11749810_s_at) / Fold change /veh ISYNA1 (11749810_s_at) / RFU ACY1 (11761880_at) / Fold change /veh ACY1 (11761880_at) / RFU 11764098_at / Fold change /veh 11764098_at / RFU SAMD14 (11745864_x_at) / Fold change /veh SAMD14 (11745864_x_at) / RFU NPB (11741838_a_at) / Fold change /veh NPB (11741838_a_at) / RFU TMPRSS6 (11731388_a_at) / Fold change /veh TMPRSS6 (11731388_a_at) / RFU KRTAP10-2 (11738614_at) / Fold change /veh KRTAP10-2 (11738614_at) / RFU ARHGAP8 /// PRR5-ARHGAP8 (11727945_x_at) / Fold change /veh ARHGAP8 /// PRR5-ARHGAP8 (11727945_x_at) / RFU KRTAP5-7 /// NADSYN1 (11734609_at) / Fold change /veh KRTAP5-7 /// NADSYN1 (11734609_at) / RFU RASL12 (11751679_a_at) / Fold change /veh RASL12 (11751679_a_at) / RFU CDKN2B (11736163_a_at) / Fold change /veh CDKN2B (11736163_a_at) / RFU PRF1 (11729649_at) / Fold change /veh PRF1 (11729649_at) / RFU, ZNF638 /// ZNF638-IT1 / Fold change vs veh, ZNF638 /// ZNF638-IT1 / RFU, PANK3 / Fold change vs veh, PANK3 / RFU, SH3YL1 / Fold change vs veh, SH3YL1 / RFU, ZEB2 / Fold change vs veh, ZEB2 / RFU, NRIP1 / Fold change vs veh, NRIP1 / RFU, PTTG1IP / Fold change vs veh, PTTG1IP / RFU, CAPN2 / Fold change vs veh, CAPN2 / RFU, MED14 / Fold change vs veh, MED14 / RFU, SNORA58 / Fold change vs veh, SNORA58 / RFU, C1orf63 / Fold change vs veh, C1orf63 / RFU, LRRFIP1 / Fold change vs veh, LRRFIP1 / RFU, NDUFAF7 / Fold change vs veh, NDUFAF7 / RFU, SLC12A2 / Fold change vs veh, SLC12A2 / RFU, IBTK / Fold change vs veh, IBTK / RFU, ESF1 / Fold change vs veh, ESF1 / Fold change vs veh, TMEM50B / RFU, TAOK1 / Fold change vs veh, TAOK1 / RFU, ACBD3 / Fold change vs veh, ACBD3 / RFU, TMA16 / Fold change vs veh, TMA16 / RFU, RWDD3 / Fold change vs veh, RWDD3 / RFU, BCAT1 / Fold change vs veh, BCAT1 / RFU, EDEM3 / Fold change vs veh, EDEM3 / RFU, TMEM33 / Fold change vs veh, TMEM33 / RFU, WDR75 / Fold change vs veh, WDR75 / RFU, AHCTF1 / Fold change vs veh, AHCTF1 / RFU, TFRC / Fold change vs veh, TFRC / RFU, ZDHHC17 / Fold change vs veh, ZDHHC17 / RFU, NOM1 / Fold change vs veh, NOM1 / RFU, ARL8B / Fold change vs veh, ARL8B / RFU, ZBTB11 / Fold change vs veh, ZBTB11 / RFU, TAMM41 / Fold change vs veh, TAMM41 / RFU, KIAA1704 /// LOC100996395 / Fold change vs veh, KIAA1704 /// LOC100996395 / RFU, ING1 / Fold change vs veh, ING1 / RFU, TRMT61B / Fold change vs veh, TRMT61B / RFU, FUBP3 / Fold change vs veh, FUBP3 / RFU, TP53 / Fold change vs veh, TP53 / RFU, TNKS2 / Fold change vs veh, TNKS2 / RFU, ZFP14 / Fold change vs veh, ZFP14 / RFU, ACTR2 / Fold change vs veh, ACTR2 / RFU, PPP3R1 / Fold change vs veh, PPP3R1 / RFU, PIK3R1 / Fold change vs veh, PIK3R1 / RFU, HNRNPA1 / Fold change vs veh, HNRNPA1 / RFU, RNF170 / Fold change vs veh, RNF170 / RFU, ZNF28 / Fold change vs veh, ZNF28 / RFU, RNGTT / Fold change vs veh, RNGTT / RFU, OGT / Fold change vs veh, OGT / RFU, BRD1 / Fold change vs veh, BRD1 / RFU, MARS / Fold change vs veh, MARS / RFU, ZNF655 / Fold change vs veh, ZNF655 / RFU, FAHD1 / Fold change vs veh, FAHD1 / RFU, BDP1 / Fold change vs veh, BDP1 / RFU, LRRCC1 / Fold change vs veh, LRRCC1 / RFU, ARID1A / Fold change vs veh, ARID1A / RFU, ZNF146 / Fold change vs veh, ZNF146 / RFU, ZNF330 / Fold change vs veh, ZNF330 / RFU, GPN3 / Fold change vs veh, GPN3 / RFU, C9orf123 / Fold change vs veh, C9orf123 / RFU, N4BP2L2 / Fold change vs veh, N4BP2L2 / RFU, ARFIP1 / Fold change vs veh, ARFIP1 / RFU, FAM179B / Fold change vs veh, FAM179B / RFU, BCL10 / Fold change vs veh, BCL10 / RFU, UHRF1BP1L / Fold change vs veh, UHRF1BP1L / RFU, BET1 / Fold change vs veh, BET1 / RFU, CNOT2 / Fold change vs veh, CNOT2 / RFU, ZNF268 / Fold change vs veh, ZNF268 / Fold change vs veh, ZNF507 / RFU, DGCR2 / Fold change vs veh, DGCR2 / RFU, WDSUB1 / Fold change vs veh, WDSUB1 / Fold change vs veh, HSP90B1 /// MIR3652 / RFU, ADSS / Fold change vs veh, ADSS / RFU, GK / Fold change vs veh, GK / RFU, ZNF148 / Fold change vs veh, ZNF148 / RFU, TAF9 / Fold change vs veh, TAF9 / RFU, SLC1A5 / Fold change vs veh, SLC1A5 / RFU, SLMO2 / Fold change vs veh, SLMO2 / RFU, ABCC4 / Fold change vs veh, ABCC4 / RFU, LOC101060439 /// RAP1B / Fold change vs veh, LOC101060439 /// RAP1B / RFU, RFX7 / Fold change vs veh, RFX7 / RFU, GTPBP10 / Fold change vs veh, GTPBP10 / RFU, CNEP1R1 / Fold change vs veh, CNEP1R1 / RFU, BIVM-ERCC5 /// ERCC5 / Fold change vs veh, BIVM-ERCC5 /// ERCC5 / RFU, ILF3 / Fold change vs veh, ILF3 / RFU 11762660_at / Fold change /veh 11762660_at / RFU VCAN (11757783_s_at) / Fold change /veh VCAN (11757783_s_at) / RFU DDX43 (11728927_at) / Fold change /veh DDX43 (11728927_at) / RFU KRT8 (11758188_x_at) / Fold change /veh KRT8 (11758188_x_at) / RFU NKD1 (11759106_at) / Fold change /veh NKD1 (11759106_at) / RFU SRD5A1 (11742802_a_at) / Fold change /veh SRD5A1 (11742802_a_at) / RFU TPSAB1 /// TPSB2 (11721975_s_at) / Fold change /veh TPSAB1 /// TPSB2 (11721975_s_at) / RFU GSTM3 (11746129_a_at) / Fold change /veh GSTM3 (11746129_a_at) / RFU IL23R (11737362_x_at) / Fold change /veh IL23R (11737362_x_at) / RFU TMEM51 (11727254_a_at) / Fold change /veh TMEM51 (11727254_a_at) / RFU PIWIL2 (11732686_x_at) / Fold change /veh PIWIL2 (11732686_x_at) / RFU ORM1 (11744905_x_at) / Fold change /veh ORM1 (11744905_x_at) / RFU CCDC152 (11743942_at) / Fold change /veh CCDC152 (11743942_at) / RFU ECM1 (11717891_a_at) / Fold change /veh ECM1 (11717891_a_at) / RFU IL23R (11748794_a_at) / Fold change /veh IL23R (11748794_a_at) / RFU TNFAIP8L3 (11732012_x_at) / Fold change /veh TNFAIP8L3 (11732012_x_at) / RFU MBOAT4 (11741988_at) / Fold change /veh MBOAT4 (11741988_at) / RFU 11764193_at / Fold change /veh 11764193_at / RFU TMEM53 (11763286_at) / Fold change /veh TMEM53 (11763286_at) / RFU MAGEB2 (11727129_at) / Fold change /veh MAGEB2 (11727129_at) / RFU TMEM200A (11744735_a_at) / Fold change /veh TMEM200A (11744735_a_at) / RFU CCDC152 (11751479_a_at) / Fold change /veh CCDC152 (11751479_a_at) / RFU FAM211A (11726209_a_at) / Fold change /veh FAM211A (11726209_a_at) / RFU RGS16 (11746705_a_at) / Fold change /veh RGS16 (11746705_a_at) / RFU VCAN (11755009_s_at) / Fold change /veh VCAN (11755009_s_at) / RFU RHOB (11743442_s_at) / Fold change /veh RHOB (11743442_s_at) / RFU RGS16 (11720943_a_at) / Fold change /veh RGS16 (11720943_a_at) / RFU RGS16 (11720944_at) / Fold change /veh RGS16 (11720944_at) / RFU, VPS4B / Fold change vs veh, VPS4B / RFU, CREB1 / Fold change vs veh, CREB1 / RFU, DNAJC13 / Fold change vs veh, DNAJC13 / RFU, GNAQ / Fold change vs veh, GNAQ / RFU, CDK5R1 / Fold change vs veh, CDK5R1 / RFU, ZRANB3 / Fold change vs veh, ZRANB3 / RFU, CUL4A / Fold change vs veh, CUL4A / RFU, CCNY / Fold change vs veh, CCNY / RFU, UFL1 / Fold change vs veh, UFL1 / RFU, COG3 / Fold change vs veh, COG3 / RFU, DIAPH2 / Fold change vs veh, DIAPH2 / RFU, SKA2 / Fold change vs veh, SKA2 / RFU, AFF3 / Fold change vs veh, AFF3 / RFU, LMF1 / Fold change vs veh, LMF1 / RFU, IPO11 / Fold change vs veh, IPO11 / RFU, DFFB / Fold change vs veh, DFFB / RFU, FOXP1 / Fold change vs veh, FOXP1 / RFU, CARD8 / Fold change vs veh, CARD8 / RFU, STRN3 / Fold change vs veh, STRN3 / RFU, ADK / Fold change vs veh, ADK / RFU, RASSF2 / Fold change vs veh, RASSF2 / RFU, WIPF1 / Fold change vs veh, WIPF1 / RFU, LARP1B / Fold change vs veh, LARP1B / RFU, RASA1 / Fold change vs veh, RASA1 / RFU, RB1 / Fold change vs veh, RB1 / RFU, PPFIA1 / Fold change vs veh, PPFIA1 / RFU, MAT2A / Fold change vs veh, MAT2A / RFU, CCT5 / Fold change vs veh, CCT5 / RFU, WDR92 / Fold change vs veh, WDR92 / RFU, CUX1 / Fold change vs veh, CUX1 / RFU, TTC7A / Fold change vs veh, TTC7A / RFU, TMEM135 / Fold change vs veh, TMEM135 / RFU, DEPTOR / Fold change vs veh, DEPTOR / RFU, CPM / Fold change vs veh, CPM / RFU, DNAJB6 / Fold change vs veh, DNAJB6 / RFU, CACNA2D3 / Fold change vs veh, CACNA2D3 / RFU, DTX4 / Fold change vs veh, DTX4 / RFU, TFCP2 / Fold change vs veh, TFCP2 / RFU, GMCL1 /// GMCL1P1 / Fold change vs veh, GMCL1 /// GMCL1P1 / RFU, AEBP2 / Fold change vs veh, AEBP2 / RFU, SNHG1 /// SNORD22 /// SNORD25 /// SNORD26 /// SNORD27 /// SNORD28 /// SNORD29 /// SNORD31 / Fold change vs veh, SNHG1 /// SNORD22 /// SNORD25 /// SNORD26 /// SNORD27 /// SNORD28 /// SNORD29 /// SNORD31 / Fold change (Aza/veh), C12orf56 (ProbeSet 11735607_a_at) / Fold change (ACY-1035/veh), C12orf56 (ProbeSet 11735607_a_at) / Fold change (Aza/veh), FGFR1OP (ProbeSet 11751329_s_at) / Fold change (ACY-1035/veh), FGFR1OP (ProbeSet 11751329_s_at) / Fold change (Aza/veh), VPS36 (ProbeSet 11739960_a_at) / Fold change (ACY-1035/veh), VPS36 (ProbeSet 11739960_a_at) / RFU SYPL1 (11715823_x_at) / Fold change /veh SYPL1 (11715823_x_at) / RFU IGFBP7 (11715501_s_at) / Fold change /veh IGFBP7 (11715501_s_at) / RFU REEP3 (11722064_at) / Fold change /veh REEP3 (11722064_at) / RFU IGLL1 (11728026_x_at) / Fold change /veh IGLL1 (11728026_x_at): dose or concentration left out as unconfirmed. The settings on record: ProbeSet 11725885_a_at; LIST B.

SMILES strings stand for the structures.

As to `Nc1ncn([C@@H]2O[C@H](CO)[C@@H](O)[C@H]2O)c(=O)n1` [azacitidine], the “RFU, CNEP1R1” value came to 65.19 RFU.

(Values after publication PMC5218480 (PLoS ONE, 2017).)
